Reference: ChEMBL document CHEMBL1148120, “New cytotoxic 6,7-cis and 6,7-trans configured guaianolides from Warionia saharae” (J Nat Prod, 2002)
Converted amounts (≈) assume the structure as drawn.

These compounds were tested on KB (assay: Cytotoxicity against human KB cells).
Assay type: functional, cell-based

| Structure (SMILES) | IC50 |
| --- | --- |
| C=C1C(=O)O[C@H]2[C@H]1CC=C(C)[C@]1(O)C[C@H]3O[C@@]3(C)[C@H]21 | 1.7 µg/mL (≈ 6.48 µM) |
| C=C1C(=O)O[C@H]2[C@@H]3[C@@](O)(C(=C)CC[C@@H]12)[C@@H]1C[C@@]3(C)O1 [SAHARANOLIDE B] | 5.5 µg/mL (≈ 21 µM) |
| C=C1C(=O)O[C@@H]2[C@H]1CCC(C)=C1[C@H]3O[C@](C)([C@H]3O)[C@@H]12 [MOROCCOLIDE A] | 4.5 µg/mL (≈ 17.2 µM) |
| C=C1C(=O)O[C@H]2[C@H]1CCC(=C)[C@]1(O)C[C@H]3O[C@@]3(C)[C@H]21 | 2 µg/mL (≈ 7.62 µM) |
| C=C1C(=O)O[C@@H]2[C@H]1CCC(C)=C1[C@H]3O[C@](C)([C@H]3OC(=O)C(C)CC)[C@@H]12 (stereo partly drawn) [3BETA-O-(2-METHYLBUTYRYL)MOROCCOLIDE A] | 1 µg/mL (≈ 2.89 µM) |
| C=C1C(=O)O[C@H]2[C@@H]3[C@@](O)(C(C)=CC[C@@H]12)[C@@H]1C[C@@]3(C)O1 [SAHARANOLIDE A] | 3.3 µg/mL (≈ 12.6 µM) |
